Data reported in US20250281649A1, “PROBE DIRECTED TO ENZYME ALDH1A3 AND USE THEREOF IN THE DIAGNOSIS OF GLIOBLASTOMA” (Universita' Degli Studi Del Piemonte Orientale "A. Avogadro", priority 2021, published 2025).

System: GL261 cells
Assay: Penetration into GL261 cells in vitro
Assay type: cell-based, mouse
Source text: We used in vitro and in vivo cells from a mouse high grade glioma cell line, GL261, Briefly, twenty-four 2- to 3-month-old female C57BIC mice were stereotactically implanted under deep general anesthesia (isoflurane supplemented with nitrous oxide) with 1×10^5 GL261 glioblastoma cells. The cells were stereotactically inoculated through a burr hole by a Hamilton syringe into the left striatum (coordinates: 1 mm anteroposterior and 1 mm lateral from bregma, at a depth of 3 mm). All experimental procedures were conducted in accordance with the European Communities Council Directive of 24 Nov. 1986 (86/609 EEC), Recommendation 18/06/2007, Dir. 2010/63/UE, and the Italian law for care and use of experimental animals (DL116/92) and were approved by the Italian Ministry of Health (prot. E669C.15) and the Bioethical Committee of the University of Turin. All animals were housed under a 12-hour light-dark cycle in an environmentally controlled room. All experiments were designed to minimize the numbers of animals used and their discomfort. In each experiment, animals with tumors were allocated to two groups and i.p. injected with probe 14 or probe 13. All drugs were administered intraperitoneally, and treatments were started days 6 after tumor implantation. […] Quantitative and phenotypic evaluations were made on images acquired with a Leica TCS SP5 confocal microscope.

## CCOC(=O)Cn1cc(COc2ccc(/C=C/C(O)=C/C(=O)/C=C/c3ccc(O)c(OC)c3)cc2OC)nn1 [Compound 14]
  penetration into cells in vitro: penetrates GL261 cells in vitro
